Reference: patent publication US8716242B2, “β-hairpin peptidomimetics” (priority 2009, dated 2014)
Like-named read-outs stand apart in the source and are kept apart here. Numbered stars: 1 amine (or outer) side, 2 acyl side, 3 side chain; on linkers, the order of the positions; unused ones are H or OH. Bridge positions count the residues as written; N and C are the ends. Square brackets hold non-standard residues; d marks the D form. Side chains are listed from the residue outwards. Peptide text beside a SMILES is read from it. * marks the point of attachment. Cholyl = C[C@H](CCC(=O)*)[C@H]1CC[C@H]2[C@@H]3[C@H](O)C[C@@H]4C[C@H](O)CC[C@]4(C)[C@H]3C[C@H](O)[C@]12C; Benzoyl(4-octyloxy) = CCCCCCCCOc1ccc(C(=O)*)cc1; γGlu = O=C(O)[C@H](CCC(=O)[*:2])N[*:1]; Octyloxycarbonyl = CCCCCCCCOC(=O)*; Myristoyl = CCCCCCCCCCCCCC(=O)*; Lauroyl = CCCCCCCCCCCC(=O)*; Octanoyl = CCCCCCCC(=O)*; Dab = NCC[C@H](N)C(=O)O; Dodecyl = CCCCCCCCCCCC*

How the values were obtained:
[1] = Plasma stability in human plasma; assay type: in vitro ADME; settings: human plasma, 37° C.; for remaining at 24 h, 10 μM: 1440 min, read-out: human pl. cpd left at 1440 min; for human pl. T1/2: up to 1440 min
Outline: (§1)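 Peptides (1 mM DMSO/H2O stock) were spiked into human or mouse plasma in triplicate and incubated at 37 °C, sampling from 0 to 1440 min. Samples were quenched in formic acid/acetonitrile and analysed by LC/MS MRM. Remaining percent of t=0 was calculated and T1/2 derived by trend fitting.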

[2] = Cytotoxicity, MTT reduction assay, HELA cells; assay type: cell-based; settings: human, HELA cells (Acc57), 12.5-50 μM
Outline: (§2)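 HELA (4000/well) and COS-7 (3400/well) cells were grown 24 h, then exposed 48 h at 37° C to peptides at 12.5, 25 and 50 μM in triplicate. MTT reduction read at 595 nm; growth % relative to time-zero, and GI50 interpolated by trend line.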

[3] = Cytotoxicity, MTT reduction assay, COS-7 cells; assay type: cell-based; settings: African green monkey, COS-7 cells (CRL-1651), 12.5-50 μM
Outline: as §2

human CXCR4 = molecular target: T1, human CXCR4 (Homo sapiens, UniProt P61073); assay: Ca2+-assay: CXCR4-antagonizing activity (SDF-1 induced calcium mobilization); assay type: cell-based
T1 construct: expressed in transfected cells; host or cells: mouse pre-B cell line 300-19
Text: 2.3. Ca^2+-Assay: CXCR4-Antagonizing Activity of the Peptides
Increases in intracellular calcium were monitored using a Flexstation 384 (Molecular Devices, Sunnyvale, Calif.) to assay the peptides for CXCR4 antagonism in a mouse pre-B cell line 300-19 stably transfected with human CXCR4 (E. Oberlin, A. Amara, F. Bachelerie, C. Bessia, J.-L. Virelizier, F. Arenzana-Seisdedos, O, Schwartz, J.-M. Heard, I. Clark-Lewis, D. F. Legler, M. Loetscher, M. Baggiolini, B. Moser, Nature 1996, 382, 833-835; M. Loetscher, T. Geiser, T. O'Reilly, R. Zwalen, M. Baggiolini, B. Moser, J. Biol. Chem. 1994, 269, 232-237; M. D'Apuuo, A. Rolink, M. Loetscher, J. A. Hoxie, I. Clark-Lewis, F. Melchors, M. Baggiolini, B. Moser, Eur. J. Immunol. 1997, 27, 1788-1793). The cells were batch loaded with the Calcium 4 Assay kit (Molecular Devices) in assay buffer (Hanks Balanced salt solution [HBSS], 20 mM HEPES, pH 7.4, 0.1% BSA) for 1 h at room temperature and labeled cells were dispensed into black well assays plates (Costar No. 3603). Calcium mobilization induced by stromal-derived factor-1 (SDF-1) was measured in the Flexstation 384 (excitation: 485 nm; emission: 525 nm) for 90 seconds. Antagonist activity of peptides was determined by spiking the cells with compounds prior to SDF-1 addition. Dose response curves (compound concentration versus % maximum response for SDF-1) were determined for each antagonist and IC50 values were calculated by fitting the data to a four parameter logistic equation using SoftmaxPro 4.8 (Molecular Devices).

[4] = system: human red blood cells (hRBC); assay: Hemolysis of human red blood cells; assay type: cell-based; settings: 20% hRBC, 1 h, 37° C.
Procedure: The peptides were tested for their hemolytic activity against human red blood cells (hRBC). Fresh hRBC were washed three times with phosphate buffered saline (PBS) and centrifuged for 10 min at 2000×g. Compounds (100 μM) were incubated with 20% hRBC (v/v) for 1 h at 37° C. and shaking at 300 rpm. The final erythrocyte concentration was approximately 0.9×10^9 cells/mL. A value of 0% and 100% cell lyses, respectively, was determined by incubation of hRBC in the presence of PBS containing 0.001% acetic acid and 2.5% Triton X-100 in H2O, respectively. The samples were centrifuged, the supernatants were 8-fold diluted in PBS buffer and the optical densities (OD) were measured at 540 nm. The 100% lyses value (OD540H2O) gave an OD540 of approximately 0.5-1.0.
Percent hemolysis was calculated as follows: (OD540peptide/OD540H2O)×100%. 2.6. Plasma Stability

[5] = Plasma stability in mouse plasma; assay type: in vitro ADME; settings: mouse plasma, 37° C.; for remaining at 24 h, 10 μM: 1440 min, read-out: mouse pl. cpd left at 1440 min
Outline: as §1

[6] = mouse pre-B cell line 300-19 transfected with human CXCR4, SDF-1 induced Ca2+ mobilization, read-out: IC50% [nM] ± SD, CXCR4 receptor

T1 sequence (P61073 whole entry): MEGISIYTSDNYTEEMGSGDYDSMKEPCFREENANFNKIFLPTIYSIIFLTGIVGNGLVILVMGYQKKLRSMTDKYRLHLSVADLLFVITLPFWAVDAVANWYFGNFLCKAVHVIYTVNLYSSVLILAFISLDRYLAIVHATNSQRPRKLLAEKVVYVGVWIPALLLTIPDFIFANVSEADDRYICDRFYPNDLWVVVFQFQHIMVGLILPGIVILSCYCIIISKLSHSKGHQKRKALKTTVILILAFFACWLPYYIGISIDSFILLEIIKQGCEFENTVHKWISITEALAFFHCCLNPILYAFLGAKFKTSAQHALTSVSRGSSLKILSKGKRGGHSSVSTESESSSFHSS

Row | SMILES | remaining at 24 h, 10 μM [1] | human pl. T1/2 [1] | GI50 at 48 h [2] | GI50 at 48 h [3] | IC50 (human CXCR4; [6]) | Hemolysis at 100 μM [4] | remaining at 24 h, 10 μM [5] | mouse pl. T1/2 ([5]; up to 1440 min) | IC50 (human CXCR4) | half-life at 10 μM ([5]; up to 1440 min, read-out: mouse pl. T1/2)
1 | CCCCCCCCCCCC(=O)N[C@@H](CCC(=O)NCCCC[C@@H]1NC(=O)[C@H](Cc2ccc(O)cc2)NC(=O)[C@@H]2CSSC[C@H](NC(=O)[C@H](C)NC(=O)[C@H](Cc3c[nH]cn3)NC(=O)[C@H](Cc3ccc(O)cc3)NC(=O)[C@@H]3CCCN3C(=O)[C@H]3CCCN3C(=O)[C@H](CCCCN)NC1=O)C(=O)N[C@@H](CCCNC(=N)N)C(=O)NCC(=O)N1CCC[C@@H]1C(=O)N[C@@H](CCN)C(=O)N[C@@H](CCCNC(=N)N)C(=O)N[C@@H](Cc1ccc(O)cc1)C(=O)N2)C(=O)O [compound 27] (cyclo(YHACRG[dP][Dab]RYCYK([γGlu-Lauroyl])K[dP]P); disulfide 4-11) | 75% | 24 h | > 48 µM | > 50 µM | 2.6 ± 0.7 nM | 1.6% | 22% | 24 h |  | 
2 | C[C@H](CCC(=O)NCC(=O)NCCCC[C@@H]1NC(=O)[C@H](CCC(N)=O)NC(=O)[C@H](Cc2ccc(O)cc2)NC(=O)[C@@H]2CSSC[C@H](NC(=O)[C@H]([C@@H](C)O)NC(=O)[C@H](Cc3c[nH]cn3)NC(=O)[C@H](Cc3ccc(O)cc3)NC(=O)[C@@H]3CCCN3C(=O)[C@H]3CCCN3C1=O)C(=O)N[C@@H](CCCNC(=N)N)C(=O)NCC(=O)N1CCC[C@@H]1C(=O)N[C@@H](CCN)C(=O)N[C@@H](CCCNC(=N)N)C(=O)N[C@@H](Cc1ccc(O)cc1)C(=O)N2)[C@H]1CC[C@H]2[C@@H]3[C@H](O)C[C@@H]4C[C@H](O)CC[C@]4(C)[C@H]3C[C@H](O)[C@]12C [Ex. 34] (cyclo(YHTCRG[dP][Dab]RYCYQK([Gly-Cholyl])[dP]P); disulfide 4-11) | 100% | 24 h | > 45 µM | > 50 µM |  | 0.6% | 87% | 24 h | 7.2 ± 0.3 nM | 
3 | CCCCCCCC(=O)NCCCC[C@@H]1NC(=O)[C@H](Cc2ccc(O)cc2)NC(=O)[C@@H]2CSSC[C@H](NC(=O)[C@H](Cc3ccc(O)cc3)NC(=O)[C@H](Cc3c[nH]cn3)NC(=O)[C@H](Cc3ccc(O)cc3)NC(=O)[C@@H]3CCCN3C(=O)[C@@H](Cc3ccc(O)cc3)NC(=O)[C@H](CCCCN)NC1=O)C(=O)N[C@@H](CO)C(=O)N[C@@H](C)C(=O)N1CCC[C@@H]1C(=O)N[C@@H](CCN)C(=O)N[C@@H](CCCNC(=N)N)C(=O)N[C@@H](Cc1ccc(O)cc1)C(=O)N2 [Ex. 13] (cyclo(A[dP][Dab]RYCYK(Octanoyl)K[dY]PYHYCS); disulfide 6-15) | 100% | 24 h | > 50 µM | > 50 µM | 6.3 ± 2.7 nM | 1.2% | 72% |  |  | 22.4 h
4 | CCCCCCCCOc1ccc(C(=O)NCCCC[C@@H]2NC(=O)[C@H](Cc3ccc(O)cc3)NC(=O)[C@@H]3CSSC[C@H](NC(=O)[C@H](C)NC(=O)[C@H](Cc4c[nH]cn4)NC(=O)[C@H](Cc4ccc(O)cc4)NC(=O)[C@@H]4CCCN4C(=O)[C@H]4CCCN4C(=O)[C@H](CCCCN)NC2=O)C(=O)N[C@@H](CCCNC(=N)N)C(=O)N[C@@H](C)C(=O)N2CCC[C@@H]2C(=O)N[C@@H](CCN)C(=O)N[C@@H](CCCNC(=N)N)C(=O)N[C@@H](Cc2ccc(O)cc2)C(=O)N3)cc1 [Ex. 23] (cyclo(YHACRA[dP][Dab]RYCYK(Benzoyl(4-octyloxy))K[dP]P); disulfide 4-11) | 100% | 24 h | > 22 µM | > 50 µM |  | 7.8% | 74% | 24 h | 8.3 ± 3.2 nM | 
5 | CCCCCCCCOC(=O)NC(=N)NCCC[C@@H]1NC(=O)[C@H](CCN)NC(=O)[C@H]2CCCN2C(=O)[C@H](C)NC(=O)[C@H](CO)NC(=O)[C@@H]2CSSC[C@H](NC(=O)[C@H](Cc3ccc(O)cc3)NC1=O)C(=O)N[C@@H](Cc1ccc(O)cc1)C(=O)N[C@@H](CCC(N)=O)C(=O)N[C@@H](CCCCN)C(=O)N1CCC[C@@H]1C(=O)N1CCC[C@H]1C(=O)N[C@@H](Cc1ccc(O)cc1)C(=O)N[C@@H](Cc1c[nH]cn1)C(=O)N[C@@H](Cc1ccc(O)cc1)C(=O)N2 [compound 6] (cyclo(YHYCSA[dP][Dab]R(Octyloxycarbonyl)YCYQK[dP]P); disulfide 4-11) | 76% | 24 h | > 10 µM | > 35 µM | 28.5 ± 9 nM | 0.7% | 92% | 24 h |  | 
6 | CCCCCCCCCCCCCC(=O)NCCCC[C@@H]1NC(=O)[C@H](Cc2ccc(O)cc2)NC(=O)[C@@H]2CSSC[C@H](NC(=O)[C@H](Cc3ccc(O)cc3)NC(=O)[C@H](Cc3c[nH]cn3)NC(=O)[C@H](Cc3ccc(O)cc3)NC(=O)[C@@H]3CCCN3C(=O)[C@H]3CCCN3C(=O)[C@H](CCCCN)NC1=O)C(=O)N[C@@H](CO)C(=O)N[C@@H](C)C(=O)N1CCC[C@@H]1C(=O)N[C@@H](CCN)C(=O)N[C@@H](CCCNC(=N)N)C(=O)N[C@@H](Cc1ccc(O)cc1)C(=O)N2 [Ex. 18] (cyclo(YHYCSA[dP][Dab]RYCYK(Myristoyl)K[dP]P); disulfide 4-11) | 71% | 24 h | > 25 µM | > 50 µM | 15.7 ± 3.9 nM | 9.2% | 78% | 24 h |  | 
7 | CCCCCCCCCCCCOc1ccc(C[C@@H]2NC(=O)[C@H](CCCNC(=N)N)NC(=O)[C@H](CCN)NC(=O)[C@H]3CCCN3C(=O)[C@H](C)NC(=O)[C@H](CCCNC(=N)N)NC(=O)[C@@H]3CSSC[C@H](NC2=O)C(=O)N[C@@H](Cc2ccc(O)cc2)C(=O)N[C@@H](CCC(N)=O)C(=O)N[C@@H](CCCCN)C(=O)N2CCC[C@@H]2C(=O)N2CCC[C@H]2C(=O)N[C@@H](Cc2ccc(O)cc2)C(=O)N[C@@H](Cc2c[nH]cn2)C(=O)N[C@@H](C)C(=O)N3)cc1 [Ex. 7] (cyclo(YHACRA[dP][Dab]RY(Dodecyl)CYQK[dP]P); disulfide 4-11) | 67% | 24 h | > 35 µM | > 50 µM |  | 11.5% | 87% | 24 h | 59.8 ± 27 nM | 
